Results taken from patent US6677433B2 (The Regents of the University of California, priority 2001, dated 2004).
Where two headings read alike, the source gives them in different places.

B1: Glutaredoxin: E. coli glutaredoxin with glutathione reductase, glutathione and NADPH (protein, UniProt P68688 1-85, looked up)
Glutaredoxin 1: MQTVIFGRSGCPYCVRAKDLAEKLSNERDDFQYQYVDIRAEGITKEDLQQKAGKPVETVPQIFVDQQHIGGYTDFAAWVKENLDA
modifications: with glutathione reductase, glutathione, NADPH
B2: α-lactalbumin: purified milk allergen (protein, UniProt P00711 20-142, looked up)
Alpha-lactalbumin: EQLTKCEVFRELKDLKGYGGVSLPEWVCTTFHTSGYDTQAIVQNNDSTEYGLFQINNKIWCKDDQNPHSSNICNISCDKFLDDDLTDDIMCVKKILDKVGINYWLAHKALCSEKLDQWLCEKL

Key:
thioredoxin = thioredoxin (Escherichia coli, UniProt P0AA25)
Gliadins = test: Reductant specificity of gliadins (mBBr, native gel, densitometer); type: biochemical, durum wheat; design: Gliadin, % Relative Reduction, α / Gliadin, % Relative Reduction, β / Gliadin, % Relative Reduction, γ: concentration or dose not given beside the values; conditions: Thioredoxin = 100
Description: (§1) For isolation of insoluble storage proteins, semolina (0.2 g) was extracted sequentially with 1 ml of the following solutions for the indicated times at 25° C.; (1) 50 mM Tris-HCl, pH 7.5 (20 min); (2) 70% ethanol (2 hr); and (3) 0.1 M acetic acid (2 hr). During extraction, samples were placed on an electrical rotator and, in addition, occasionally agitated with a vortex mixer. After extraction with each solvent, samples were centrifuged (12,000 rpm for 5 min) in an Eppendorf microfuge and, supernatant fractions were saved for analysis. In between each extraction, pellets were washed with 1 ml of water, collected by centrifugation as before and the supernatant wash fractions were discarded. By convention, the fractions are designated: (1) albumin/globulin; (2) gliadin; and (3) glutenin.
(§2) Reactions were carried out in 100 mM Tris-HCl buffer, pH 7.9. As indicated, 0.7 μg NTR and 1 μg thioredoxin (both from E. coli unless specified otherwise) were added to 70 μl of this buffer containing 1 mM NADPH and 10 μg of target protein.
To resolve the different types of gliadins, native polyacrylamide gel electrophoresis was performed in 6% gels (a procedure designed to separate gliadins into the four types) as described by Bushuk and Zillman (Bushuk, W. et al. (1978), Can. J. Plant Sci. 58:505-515) and modified for vertical slab gels by Sapirstein and Bushuk (Sapirstein, H. D. et al. (1985), Cereal Chem. 62:372-377). A gel solution in 100 ml final volume contained 6.0 g acrylamide, 0.3 g bisacrylamide, 0.024 g ascorbic acid, 0.2 mg ferrous sulfate heptahydrate and 0.25 g aluminum lactate. The pH was adjusted to 3.1 with lactic acid. The gel solution was degassed for 2 hr. on ice and then 0.5 ml of 3% hydrogen peroxide was added as a polymerization catalyst. The running buffer, also adjusted to pH 3.1 with lactic acid, contained 0.5 g aluminum lactate per liter. Duration of electrophoresis was approximately 4 hr., with a constant current of 50 mA. Electrophoresis was terminated when the solvent front, marked with methyl green tracking dye, migrated to about 1 cm from the end of the gel.
(§3) The Polaroid negatives of fluorescent gels and prints of wet protein stained gels were scanned with a laser densitometer (Pharmacia-LKB UltroScan XL). Fluorescence was quantified by evaluating peak areas after integration with GelScan XL software.
The gliadin fraction is made up of four different protein types, designated α, β, γ and ω, which can be separated by native polyacrylamide gel electrophoresis under acidic conditions (Bushuk, W. et al. (1978), Can. J. Plant Sci. 58:505-515; Kasarda, D. D. et al. (1976), Adv. Cer. Sci. Tech. 1:158-236; Sapirstein, H. D. et al. (1985), Cereal Chem. 62:372-377; and Tatham, A. S. et al. (1990), Adv. Cer. Sci. Tech. 10:1-78). Except for the ω) gliadins, each species contains cystine (S—S) groups and thus has the potential for reduction by thioredoxin. In this study, following incubation with the indicated additions, proteins were derivatized with mBBr, and fluorescence was visualized after acidic-polyacrylamide gel electrophoresis. The lanes in the second gliadin gel in this study were as follows: 1. Control: no addition. 2. GSH: reduced glutathione. 3. GSH/GR/NADPH: reduced glutathione, glutathione reductase (from spinach leaves) and NADPH. 4. NGS: NADPH, reduced glutathione, glutathione reductase (from spinach leaves) and glutaredoxin (from E. coli). 5. NGS+NTS: combination of 4 and 6. 6. NTS: NADPH, NTR, and thioredoxin (both proteins from E. coli). 7. MET/T(Ec): β-mercaptoethanol and thioredoxin (E. coli). 8. DTT/T(Ec): DTT and thioredoxin (E. coli). 9. NTS(−T): same as 6 except without thioredoxin. 10. NGS+NTS,-Gliadin: same as 5 except without the gliadin fraction.

Glutenins = test: Reductant specificity of glutenins (mBBr/SDS-PAGE, densitometer); type: biochemical, durum wheat; design: concentration or dose not given beside the values
Description: as §1, §2
SDS-polyacrylamide electrophoresis of the mBBr-derivatized samples was performed in 15% gels at pH 8.5 as described by Laemmli, U.K. (1970), Nature 227:680-685. Gels of 1.5 mm thickness were developed for 16 hr. at a constant current of 9 mA.
as §3

pepsin = test: Pepsin assay in simulated gastric fluid; type: in vitro ADME, porcine; conditions: thioredoxin-reduced form in milk, SGF 37° C.
Description: BLG, 640 μg, or milk, 1 mg protein (i.e., about 30 μl), was incubated with or without the thioredoxin system (NTS) at either 4° C. […] The BLG, 320 μg, or milk, 500 μg protein, was then treated in 200 μl of simulated gastric fluid (SGF) as described by Astwood, J. D. et al. (1996), “Stability of food allergens to digestion in vitro”, Nature Biotechnol. 14:1269-1273. SGF consists of 0.32% pepsin (w/v) and 30 mM NaCl adjusted at pH 1.2 with HCl (Board of Trustees (ed.) 1995, Simulated Gastric Fluid, TS., pp. 2053 in the United States Pharmacopeia 23, The National Formulary 18. United States Pharmacopeial Convention, Inc. Rockville, Md.). The reaction mixture was incubated at 37° C. and stopped by adding 0.375-fold volume of 160 mM Na2CO3 (ca. pH 7) after 0, 0.25, 1, 2, 4, 8, 15, 30 and 60 min incubation. The protein mixture was then subjected to SDS-PAGE (15% gels) and stained for protein with Coomassie blue as described below. As indicated, the allergenicity of the digested samples was determined by skin test analysis.

atopic dogs = test: Feeding challenges with BLG, upper GI index; type: in vivo, dog
Description: Reduction of 80% pure BLG (a mixture of the A and B forms) was carried out for each dog in 100 ml of water. Each gram of BLG was treated by adding an aqueous mixture of 104 mg of NADPH, 1 mg of E. coli thioredoxin and 1 mg of E. coli NTR. The reactions occurred in a shaker at 125 rpm at 37° C. for 45 min. Samples were stored overnight at 4° C. The following day untreated (control) or treated BLG, 2.5 gm was mixed with a 12 oz. can of P/D food (Hills) and fed to a dog. Unchallenged animals received dog food alone without BLG while control animals received dog food with untreated BLG. Dogs were initially fed ¼ can of untreated food to initiate gastric flow. After 15 min, they were then fed at 3 intervals separated by 15 min ⅓ of a can of food that had been mixed with 2.5 g of either untreated or thioredoxin treated BLG. During these intervals dogs were monitored and their GI response assessed. Dogs were then observed and their response recorded at hourly intervals for the next 5 hr.
The digestion response of the food challenged dogs described above was assessed by assigning numbers to the timing, volume and fluidity of vomit induced by feeding. Fluidity: no vomit=0, solid vomit=1, liquid vomit=2, liquid with blood or bile vomit=3. Volume: no vomit=0, small vomit=1 and large vomit=2. Timing: delayed vomit=1, immediate vomit=2.

castor seed 2S protein = type: biochemical, Ricinus communis
egg white proteins = test: Reduction of egg white proteins (mBBr/SDS-PAGE); type: biochemical, chicken; conditions: 1 hr at room temperature
Description: Dried chicken egg white was purchased from Sigma Chemical Co. About 80% of the total proteins in egg white are allergens. A solution of 20 mg/ml egg white was resuspended in PBS. Since not all the material was dissolved, it was centrifuged at 14,000 RPM for 2 min. The soluble egg white proteins were used for the reduction study using mBBr fluorescent labelling and SDS-polyacrylamide gel electrophoresis analysis. The treatments used were the control (no reductant), NTS, DTT plus thioredoxin, reduced glutathione (GSH) and reduced glutathione/glutathione reductase/NADPH. Reactions were carried out in PBS with 23 microliters of the soluble proteins from the 20 mg/ml egg white suspension in a final volume of 100 microliters. In the NTS, 7.5 mM NADPH, 2.4 micrograms thioredoxin and 2.1 micrograms NTR were used. When thioredoxin was reduced by DTT, NADPH and NTR were omitted and DTT was added to 1.5 mM. The GSH concentration used was 3 mM. For reduction by the GSH/GR/NADPH system, 3 mM GSH, 4 micrograms GR and 7.5 mM NADPH were used. The mixture was incubated for 1 hr at room temperature. After incubation, 7 microliters of 80 mM mBBr was added and the reaction continued for 15 min at room temperature. […] Samples were then analyzed by SDS-polyacrylamide gel electrophoresis.

trypsin = test: Trypsin proteolysis of purified milk allergen proteins; type: biochemical; conditions: 2 μg trypsin
Description: The analysis of the reduction was done using the mBBr/SDS-PAGE techniques. Further in this study, when 10 μg of an NTS reduced purified milk allergen protein, β-lactoglobulin (Sigma Chemical Co.), was treated with 2 μg of trypsin, proteolysis was 100% as compared with only 50% for the identically trypsin treated oxidized β-lactoglobulin. […] However, 10 μg of purified […] reduced by the NTS was proteolyzed 80% by trypsin. Also 10 μg of α-lactalbumin reduced by 0.8 μg of thioredoxin and 0.5 mM DTT was 100% proteolyzed by 2 μg of trypsin.

| Molecule | Gliadin, % Relative Reduction, Aggregate (proteins not entering the gel) (Gliadins) | Gliadin, % Relative Reduction, α (Gliadins) | Gliadin, % Relative Reduction, β (Gliadins) | Gliadin, % Relative Reduction, γ (Gliadins) | Glutenin, % Relative Reduction, 30-40 kDa (Glutenins; Thioredoxin = 100) | Glutenin, % Relative Reduction, 40-60 kDa (Glutenins; Thioredoxin = 100) | Glutenin, % Relative Reduction, 60-110 kDa (Glutenins; Thioredoxin = 100) | also measured |
| --- | --- | --- | --- | --- | --- | --- | --- | --- |
| erabutoxin b: short postsynaptic snake neurotoxin | – | – | – | – | – | – | – | reduction of the toxin (thioredoxin): significantly reduced |
| Thioredoxin: E. coli thioredoxin reduced by NADPH and NTR | 100.0% | 100.0% | 100.0% | 100.0% | 100% | 100% | 100% | – |
| Treated: BLG reduced with NADPH, E. coli thioredoxin and NTR | – | – | – | – | – | – | – | time to digestion (pepsin): ≤ 60 s; Upper GI Index (atopic dogs; dog 6GCB1, Treated Exp. A, Control Exp. B): 0; Upper GI Index (atopic dogs; dog 6GCB3, BLG 2.5 g in dog food, Control Exp. A, Treated Exp. B): 0; Upper GI Index (atopic dogs; dog 6GCB4, Treated Exp. A, Control Exp. B): 6; Upper GI Index (atopic dogs; dog 6GCB6, Treated Exp. A, Control Exp. B): 0; Upper GI Index (atopic dogs; dog 6GCB7, Control Exp. A, Treated Exp. B): 3; gastric reflux that disappeared (atopic dogs; repeated feeding trials, on average): about 70% |
| N[C@@H](CCC(=O)N[C@@H](CS)C(=O)NCC(=O)O)C(=O)O [Glutathione, reduced glutathione, reference compound] | 60.1% | 36.4% | 68.1% | 60.6% | – | – | – | Glutenin, % Relative Reduction, 30-40 kDa (Glutenins): 29%; Glutenin, % Relative Reduction, 40-60 kDa (Glutenins): 51%; Glutenin, % Relative Reduction, 60-110 kDa (Glutenins): 31%; Relative Reduction (%) (castor seed 2S protein): 0%; effectiveness in reducing egg white proteins (egg white proteins): ineffective reductant |
| B1 | 61.5% | 43.5% | 83.3% | 79.7% | 40% | 72% | 50% | – |
| B2 | – | – | – | – | – | – | – | proteolysis by trypsin (trypsin; 10 μg oxidized protein): no noticeable proteolysis; proteolysis by trypsin (trypsin; 10 μg protein reduced by 0.8 μg thioredoxin and 0.5 mM DTT): 100% |
